Data taken from patent US9556183B2, “Substituted pyrazolylpyrazole derivative and use of same as herbicide” (KYOYU AGRI CO., LTD., priority 2013, dated 2017).

What was measured:
Echinochloa crus-galli = assay: Paddy herbicidal activity test; type: in vivo; conditions: irrigated paddy pot, treated at 3.5 leaf stage of Echinochloa crus-galli, 30 days
Outline: (§1)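 Flooded paddy-soil pots (3 cm water) sown with weeds; rice at 2.0 leaf stage transplanted when Echinochloa reached 3.5 leaf stage, then diluted wettable powder dropped into water at prescribed rate per are. After 30 days in greenhouse (mean 30° C), growth inhibition vs untreated (efficacy) or vs complete kill (phytotoxicity) scored on 11 levels.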

Monochoria vaginalis = assay: Paddy herbicidal activity test; type: in vivo; conditions: irrigated paddy pot, 30 days
Outline: as §1

Scirpus juncoides = assay: Paddy herbicidal activity test; type: in vivo; conditions: irrigated paddy pot, 30 days
Outline: as §1

Amaranthus retroflexus [1] = assay: Weed foliar treatment test; type: in vivo; conditions: foliar spray, 3 weeks
Description: (§2) Evaluation of herbicidal efficacy was carried out by comparing growth inhibition rate (%) with an untreated group, while evaluation of phytotoxicity was carried out by comparing growth inhibition rate (%) with the state of a complete eradication group, and were evaluated at 11 levels indicated below. [table] Soil was filled into a 1/6000 are pot followed by seeding with Digitaria ciliaris, Chenopodium album and Amaranthus retroflexus, covering with soil, and cultivating in a glass greenhouse at an average atmospheric temperature of 25° C. Wettable powder of Target Compound (I) shown in Table 1 prepared in compliance with the preparation examples were diluted with water to the prescribed amount of chemical and uniformly sprayed onto the weeds using 15 liters of sprayed water per are when Digitaria ciliaris had grown to the 1.0 to 2.0 leaf stage. After treating for 3 weeks in a glass greenhouse at an average atmospheric temperature of 25° C., the herbicidal efficacy thereof was investigated, Evaluation of herbicidal efficacy was carried out in the same manner as the above-mentioned Test Example 1.

Chenopodium album [2] = assay: Weed foliar treatment test; type: in vivo; conditions: foliar spray, 3 weeks
Description: as §2

Digitaria ciliaris [3] = assay: Weed foliar treatment test; type: in vivo; conditions: foliar spray at 1.0 to 2.0 leaf stage of Digitaria ciliaris, 3 weeks
Description: as §2

Rice plants = assay: Paddy herbicidal activity test, phytotoxicity to transplanted rice; type: in vivo; conditions: rice transplanted at 2.0 leaf stage, 30 days
Outline: as §1

Amaranthus retroflexus [4] = assay: Farming soil treatment test; type: in vivo; conditions: soil surface spray prior to weed growth, 30 days
Description: (§3) Evaluation of herbicidal efficacy was carried out by comparing growth inhibition rate (%) with an untreated group, while evaluation of phytotoxicity was carried out by comparing growth inhibition rate (%) with the state of a complete eradication group, and were evaluated at 11 levels indicated below. [table] Field soil was filled into a 1/6000 are pot followed by seeding with Digitaria ciliaris, Chenopodium album and Amaranthus retroflexus and covering with soil. Wettable powder of compounds of formula (I) shown in Table 1 prepared in compliance with the preparation examples were diluted with water to the prescribed amount of chemical and uniformly sprayed onto each soil surface layer using 10 liters of sprayed water per are prior to weed growth following seeding. After treating for 30 days in a glass greenhouse at an average atmospheric temperature of 30° C., the herbicidal efficacy thereof was investigated. Evaluation of herbicidal efficacy was carried out in the same manner as the above-mentioned Test Example 1.

Chenopodium album [5] = assay: Farming soil treatment test; type: in vivo; conditions: soil surface spray prior to weed growth, 30 days
Description: as §3

Digitaria ciliaris [6] = assay: Farming soil treatment test; type: in vivo; conditions: soil surface spray prior to weed growth, 30 days
Description: as §3

melting point [°C]	SMILES	herbicidal efficacy (growth inhibition rate level) Echinochloa crus-galli (Echinochloa crus-galli; 1g a.i./10a)	herbicidal efficacy (growth inhibition rate level) Echinochloa crus-galli (Echinochloa crus-galli; 5g a.i./10a)	herbicidal efficacy (growth inhibition rate level) Monochoria vaginalis (Monochoria vaginalis; 1g a.i./10a)	herbicidal efficacy (growth inhibition rate level) Monochoria vaginalis (Monochoria vaginalis; 5g a.i./10a)	herbicidal efficacy (growth inhibition rate level) Scirpus juncoides (Scirpus juncoides; 1g a.i./10a)	herbicidal efficacy (growth inhibition rate level) Scirpus juncoides (Scirpus juncoides; 5g a.i./10a)	herbicidal efficacy (growth inhibition rate level) Amaranthus retroflexus (Amaranthus retroflexus [1]; 5g a.i./10a)	herbicidal efficacy (growth inhibition rate level) Amaranthus retroflexus (Amaranthus retroflexus [1]; 10g a.i./10a)	herbicidal efficacy (growth inhibition rate level) Chenopodium album (Chenopodium album [2]; 5g a.i./10a)	herbicidal efficacy (growth inhibition rate level) Chenopodium album (Chenopodium album [2]; 10g a.i./10a)	herbicidal efficacy (growth inhibition rate level) Digitaria ciliaris (Digitaria ciliaris [3]; 5g a.i./10a)	herbicidal efficacy (growth inhibition rate level) Digitaria ciliaris (Digitaria ciliaris [3]; 10g a.i./10a)	phytotoxicity (growth inhibition rate level) Rice plants (Rice plants; 1g a.i./10a)	phytotoxicity (growth inhibition rate level) Rice plants (Rice plants; 5g a.i./10a)	herbicidal efficacy (growth inhibition rate level) Amaranthus retroflexus (Amaranthus retroflexus [4]; 5g a.i./10a)	herbicidal efficacy (growth inhibition rate level) Amaranthus retroflexus (Amaranthus retroflexus [4]; 10g a.i./10a)	herbicidal efficacy (growth inhibition rate level) Chenopodium album (Chenopodium album [5]; 5g a.i./10a)	herbicidal efficacy (growth inhibition rate level) Chenopodium album (Chenopodium album [5]; 10g a.i./10a)	herbicidal efficacy (growth inhibition rate level) Digitaria ciliaris (Digitaria ciliaris [6]; 5g a.i./10a)	also measured
104 to 108	CC(Nc1c(C#N)cnn1-c1nn2c(c1Cl)CCCC2)C1CC1 (stereo not drawn) [Compound 9, 1-(3-chloro-4,5,6,7-tetrahydropyrazolo[1,5-a]pyridin-2-yl)-5-(1-cyclopropylethylamino)pyrazole-4-carbonitrile]	9 (9: 90% to less than 100%)	9 (9: 90% to less than 100%)	8 (8: 80% to less than 90%)	9 (9: 90% to less than 100%)	8 (8: 80% to less than 90%)	8 (8: 80% to less than 90%)	10 (10: 100%)	10 (10: 100%)	10 (10: 100%)	10 (10: 100%)	10 (10: 100%)	10 (10: 100%)	0 (0 (exponent): 0% to less than 10% (growth inhibition rate))	1 (1: 10% to less than 20%)	10 (10: 100%)	10 (10: 100%)	10 (10: 100%)	10 (10: 100%)	10 (10: 100%)	herbicidal efficacy (growth inhibition rate level) Digitaria ciliaris (Digitaria ciliaris [6]; 10g a.i./10a): 10 (10: 100%)
132 to 133	N#Cc1cnn(-c2nn3c(c2Cl)CCCC3)c1NC(C1CC1)C1CC1 [Compound 10, 1-(3-chloro-4,5,6,7-tetrahydropyrazolo[1,5-a]pyridin-2-yl)-5-(dicyclopropylmethylamino)pyrazole-4-carbonitrile]	9 (9: 90% to less than 100%)	9 (9: 90% to less than 100%)	8 (8: 80% to less than 90%)	9 (9: 90% to less than 100%)	8 (8: 80% to less than 90%)	9 (9: 90% to less than 100%)	10 (10: 100%)	10 (10: 100%)	10 (10: 100%)	10 (10: 100%)	10 (10: 100%)	10 (10: 100%)	0 (0 (exponent): 0% to less than 10% (growth inhibition rate))	1 (1: 10% to less than 20%)	10 (10: 100%)	10 (10: 100%)	10 (10: 100%)	10 (10: 100%)	10 (10: 100%)	herbicidal efficacy (growth inhibition rate level) Digitaria ciliaris (Digitaria ciliaris [6]; 10g a.i./10a): 10 (10: 100%)
